Legend:
[1] = system: Fruit flies, Drosophila Melanogaster; assay: Egg laying of fruit flies on plates containing allicin (repellent activity); assay type: in vivo
Experimental: Fruit flies, Drosophila Melanogaster, were grown in a plastic container and allowed to lay eggs in laying bottles (6×4 cm) containing allicin (100 μl) in various concentrations (0-12 mM). Allicin was introduced to the egg-laying sites on a ring of Whatman (3 mm) paper placed at the periphery of the egg laying plate which was placed at the bottom of the bottle. A yeast paste (fly food) was applied in the middle of the plate. Female fruit flies (N=100) were introduced into the laying bottle and were allowed to lay eggs for 16 hours. At the end of the 16 hours, the number of eggs was counted in each plate. The total number of eggs laid by the flies was 1440. The repellent effect of allicin on the fruit fly was determined by measuring the number of laid eggs during the continuous exposure of the flies to the various concentrations of allicin. The results are shown in FIG. 1a as a percentage of laid eggs in the presence of each concentration of allicin in comparison with the number of eggs laid by flies in the absence of allicin (first column, left—100%). […] At the end of the 8 hours, the number of eggs was counted in each plate. […] The repellent effect of allicin on the fruit fly was determined by measuring the number of laid eggs in allicin-free plates for 8 hours after the 16-hour exposure of the flies to the various concentrations of allicin. […]

[2] = system: hatched larvae of fruit fly; assay: Lethality of hatched larvae on egg-laying plates with allicin; assay type: in vivo, Drosophila Melanogaster; conditions: allicin stock 1-2 mg/ml added to egg-laying plates, about 200 eggs per plate
Experimental: In an additional experiment, lethality of 80-90% of the hatched larvae produced in the second phase of the fly life cycle was caused by addition of allicin (stock 1-2 mg/ml) to egg-laying plates containing about 200 eggs per plate (not shown).

[3] = system: fruit flies that attack the persimmon trees; assay: Spraying of persimmon trees with allicin, repellent effect on fruit flies; assay type: in vivo, fruit fly; conditions: trees sprayed with water solution 0.1-0.2 g/l (0.5-1 mM) every second week, 12 weeks, 6 sessions, FIG. 2
Experimental: (§1) Persimmon trees (Oriental persimmon of the type “Fuyu”, 2.5-3 meters tall) in the Hasharon region, Israel, were sprayed with a water solution of allicin (0.1-0.2 g/l, 0.01-0.02% or 0.5-1 mM) every second week, during a 12-week period, for a total of 6 sessions. Spraying with allicin was started 2-3 weeks after persimmon fruit setting, when the fruits reached 1-2 cm in diameter. The spraying was performed in such a way as to wet the leaves and the fruits completely. No other insecticides or other treatments were used in parallel or at any point of the experiment. FIG. 2 is a photograph showing persimmon fruits from trees treated with allicin (left) and from untreated trees (right).

[4] = system: Persimmon trees (Oriental persimmon of the type "Fuyu"); assay: Damage to leaves of persimmon trees after spraying with allicin; assay type: in vivo; conditions: water solution 0.1-0.2 g/l, 6 sprayings over 12 weeks
Experimental: as §1

ants = assay: Repellent effect of allicin on ants; assay type: in vivo
Experimental: Treatment of the locus of an ant colony with a water solution of allicin (1 mg/ml) prevented the ants from reentering the place for at least 3 days.

## C=CCS[S+]([O-])CC=C (stereo not shown) [allicin, thio-2-propene-1-sulfinic acid S-allyl ester]
[1]; 0-12 mM allicin (100 μl), 16 hours continuous exposure, FIG. 1a
  repellent activity, inhibition of egg laying by the flies (% of eggs laid vs no allicin): dose-dependent
[1]; 8 hours on allicin-free plates after 16 hours exposure to 0-12 mM allicin, FIG. 1b
  inhibition of capability of the flies to lay eggs on allicin-free plates after exposure: significant inhibition effect
[2]
  lethality of hatched larvae: 80-90%
[3]
  repellent effect on fruit flies, appearance of persimmon fruits: repellent effect on fruit flies
[4]
  damage to leaves after spraying: no damage
ants; water solution of allicin 1 mg/ml on a line in the floor, even after the solution dried off
  crossing of a treated line in the floor by ants: prevented the crossing of the line by ants
ants; water solution of allicin 1 mg/ml on locus of an ant colony
  time ants were prevented from reentering the treated locus of the colony: at least 3 days
